# Data from patent US10563272B2, “Compositions comprising Metarhizium fungi and use thereof as a pesticide” (Cotton Research and Development Corporation, priority 2015, dated 2020).
# Key:
# [1] = test system: spiders; test: Foliar spray trial on Bollgard II cotton, Norwood 2010-11 (Example 7): spiders; assay type: in vivo, Lycosa spp., Oxyopes spp., Salticidae spp., Araneus spp.; conditions: fipronil 62.5 mL/ha; for number of spiders per meter: 1st spray, BC 667/DAT 511 0.50 L/ha; for number of spiders per metre: 2nd spray, BC 667/DAT 511 0.5 L/ha
# Procedure: The trial was conducted on commercial Bollgard II® cotton crops at Norwood near Moree, NSW from 5 Dec. 2010 to 19 Feb. 2011. The cotton was at the early squaring stage, when it was attractive to green mirids (Khan et al. 2004).
# The study evaluated the efficacy of the following treatments against green mirids, green vegetable bugs and predatory insects: • 1. 500 mL/ha BC 667 spore in oil (1×10^7 spores/ml); • 2. 500 mL/ha DAT 511 spore in oil (1×10^7 spores/ml); • 3. 62.5 mL/ha Fipronil (conventional insecticide); and • 4. Unsprayed (control).
# The treatment plots were arranged in a randomized complete block design with four replicates per treatment. Each replicated plot measured 0.5 ha. Foliar application of each treatment was made on 18 Jan. 2011 using a ground spray rig fitted with flat fan nozzles to achieve a droplet size of 80 250 μm. The treatment was applied in the mornings when temperature was between 20° C. and 28° C. The timing of treatment was based on an economic threshold of 0.5 green mirids per metre, the IPM guideline and recommendation by CottonLogic.
# Pre-treatment counts of green mirid adults and nymphs, predatory beetles, predatory bugs, predatory lacewings and spiders were made by visual inspection of whole cotton plants. Both adults and nymphs of the beneficial insects were counted. Plants were assessed in randomly selected one-metre lengths of row of each treatment replicate (i.e. four metres per treatment). In all, two spray applications of each treatment were made. The first spray was made on 18 Jan. 2011. Post-treatment counts of the first spray application were taken 3, 7 and 14 days after treatment (DAT) (first spray). A second spray application was done on 1 Feb. 2011 when green mirid adults plus nymphs reached the threshold of 0.5 per metre. Post-treatment counts of the second spray application were taken 3, 7, 14, 21 and 28 DAT. Data are expressed as numbers of individuals of that species counted per metre for each treatment.
# [2] = test system: predatory bugs; test: Bollgard II cotton, Auscott-Togo 2012-13, Field 77 (Experiment 1): predatory bugs; assay type: in vivo, Hemiptera (Nabidae, Lygaeidae, Pentatomidae); conditions: 62.5 mL/ha
# Procedure: (§1) Two separate trials (Experiment 1 in Field 77; Experiment 2 in Field 63) were conducted in Bollgard II cotton crops on a commercial cotton farm at Auscott-Togo near Narrabri, New South Wales from 11 Feb. to 5 Mar. 2013 (Field 77) and 19 Feb. to 6 Mar. 2013 (Field 63). The cotton used for each of the trials was at the late squaring to pod setting and maturation stages which was fairly attractive to green mirids.
# (§2) In both trials, the efficacy of the following treatments against green mirids and predatory insects was evaluated: • 1. 250 mL/ha DAT 511 spore in oil (1×10^7 spores/ml); • 2. 500 mL/ha DAT 511 spore in oil (1×10^7 spores/ml); • 3. 1 L/ha DAT 511 spore in oil (1×10^7 spores/ml); • 4. 62.5 mL/ha of fipronil; and • 5. Unsprayed (negative control).
# (§3) The treatment plots were arranged in a randomized complete block design with six replicates per treatment. Each replicated plot measured 40 m wide (40 rows) and 90 m long.
# (§4) Foliar application of each treatment was made on 28 Feb. (for both green mirids and beneficial insects) and 13 Mar. 2012 (for beneficial insects alone) using a ground spray rig fitted with flat fan nozzles to achieve a droplet size of 200 μm. The treatment was applied during the mornings when temperatures were between 20° C. and 28° C. The timing of treatment was based on the IPM Guidelines and recommendations by CottonLogic to use an economic threshold of 0.5 green mirids per metre (Deutscher and Wilson 1999; Khan et al. 2004).
# (§5) Pre-treatment counts of green mirid adults and nymphs, predatory beetles, predatory bugs, predatory lacewings and spiders were made by visual inspection of whole cotton plants. Both adults and nymphs of beneficial insects were counted. Plants were assessed in randomly selected one-metre lengths of row of each replicate (i.e. 6 m per treatment). Post-treatment counts were made 3, 7, 14 and 21 days after treatment. Data are expressed as numbers of green mirid adults and nymphs counted per metre for each treatment.
# [3] = test system: predatory beetles; test: Bollgard II cotton, Auscott-Togo 2012-13, Field 63 (Experiment 2): predatory beetles; assay type: in vivo, Coleoptera (Coccinellidae, Melyridae); conditions: 62.5 mL/ha
# Procedure: as §1, §2, §3, §4, §5
# [4] = test system: predatory bugs; test: Bollgard II cotton, Auscott-Togo 2012-13, Field 63 (Experiment 2): predatory bugs; assay type: in vivo, Hemiptera (Nabidae, Lygaeidae, Pentatomidae); conditions: 62.5 mL/ha
# Procedure: as §1, §2, §3, §4, §5
smiles,measurement,setting,value
N#Cc1nn(-c2c(Cl)cc(C(F)(F)F)cc2Cl)c(N)c1[S+]([O-])C(F)(F)F (stereo not shown) [fipronil],number of spiders per meter,[1]; 3 DAT,3.33 ± 0.33 a per meter
same,number of spiders per meter,[1]; 7 DAT,4.67 ± 2.03 b per meter
same,number of spiders per meter,[1]; 14 DAT,9.67 ± 1.45 a per meter
same,number of spiders per meter,[1]; pre-spray counts 18 Jan. 2011,9.33 ± 1.20 a per meter
same,number of spiders per metre,[1]; 3 DAT,12.00 ± 1.16a per metre
same,number of spiders per metre,[1]; 7 DAT,10.33 ± 2.67a per metre
same,number of spiders per metre,[1]; 14 DAT,16.00 ± 0.58b per metre
same,number of spiders per metre,[1]; 21 DAT,21.00 ± 3.22a per metre
same,number of spiders per metre,[1]; 28 DAT,21.00 ± 3.00a per metre
same,number of spiders per metre,[1]; pre-spray counts 1 Feb. 2011,9.67 ± 1.45a per metre
same,number of predatory bugs per meter,[2]; 3 DAT,0.33 ± 0.00 a per meter
same,number of predatory bugs per meter,[2]; 7 DAT,0.00 ± 0.00 a per meter
same,number of predatory bugs per meter,[2]; 14 DAT,0.00 ± 0.00 a per meter
same,number of predatory bugs per meter,[2]; 21 DAT,0.67 ± 0.33 a per meter
same,number of predatory bugs per meter,[2]; pre-spray counts,0.33 ± 0.33 a per meter
same,No. predatory beetles per meter,[3]; 3 DAT,2.67 ± 0.33 a per meter
same,No. predatory beetles per meter,[3]; 7 DAT,2.33 ± 0.33 a per meter
same,No. predatory beetles per meter,[3]; 14 DAT,0.67 ± 0.33 a per meter
same,No. predatory beetles per meter,[3]; 21 DAT,1.67 ± 0.33 a per meter
same,No. predatory beetles per meter,[3]; pre-spray counts,5.67 ± 0.67ab per meter
same,No. predatory bugs per meter,[4]; 3 DAT,0.00 ± 0.00 a per meter
same,No. predatory bugs per meter,[4]; 7 DAT,0.33 ± 0.33 a per meter
same,No. predatory bugs per meter,[4]; 14 DAT,0.00 ± 0.00 a per meter
same,No. predatory bugs per meter,[4]; 21 DAT,0.00 ± 0.00 a per meter
same,No. predatory bugs per meter,[4]; pre-spray counts,0.00 ± 0.00 a per meter
